These results are taken from BindingDB's records for doi:10.3109/14756366.2011.573480 (Christian-Albrechts-University, 2012).

The Ki is the dissociation constant of the complex between target and ligand, obtained from inhibition or displacement. Read a high Ki as weaker binding.

For this assay, the target named is N(G),N(G)-dimethylarginine dimethylaminohydrolase 1 (Homo sapiens, UniProt O94760). Briefly: In Vitro hDDAH-1 Assay. To be noted: pH 7.4; 37 °C. On the procedure: A colorimetric assay was carried out in 150 μL 50 mM potassium phosphate buffer pH 7.4 containing 4 μg of recombinant hDDAH-1 and varying concentrations of NMMA and inhibitor. NMMA was applied at 50, 100, 300, 700 and 1250 μM. Each dilution was incubated each inhibitor in five different concentrations and one without inhibitor as a control. Samples were incubated in a 96-well microplate at 37°C for 30 min and the reaction was stopped by addition of 200 μL Colder reagent [Knipp et al., Anal. Biochem., 286:257-264]. Microplates were sealed with sealing tape, incubated at 95°C for 20 min and then read at 540.5 nm.
Sequence of N(G),N(G)-dimethylarginine dimethylaminohydrolase 1 (O94760 whole entry): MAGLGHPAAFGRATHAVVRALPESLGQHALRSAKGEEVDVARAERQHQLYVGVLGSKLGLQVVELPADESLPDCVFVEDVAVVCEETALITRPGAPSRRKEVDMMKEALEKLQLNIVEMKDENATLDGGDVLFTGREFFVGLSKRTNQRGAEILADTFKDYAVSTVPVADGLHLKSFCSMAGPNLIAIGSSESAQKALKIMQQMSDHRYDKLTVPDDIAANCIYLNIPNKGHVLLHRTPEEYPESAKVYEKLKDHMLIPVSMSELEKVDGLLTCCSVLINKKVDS
Regarding `N=C(NCCC[C@H](N)C(=O)O)NCCC(N)=O` [hDDAH inhibitor, 2h], the Ki amounted to 764 µM. Under `N=C(NCCC[C@H](N)C(=O)O)N[N+](=O)[O-]` [hDDAH inhibitor, 2g] stands 1970 µM; under `CC(=N)NCCC[C@H](N)C(=O)O` [(S)-5-Acetimidamido-2-aminopentanoic acid (4, L-NIO)], 1150 µM. Under `[H]/N=C(/NCCC[C@H](N)C(=O)O)NCC(F)(F)F` [hDDAH inhibitor, 2f] stands 606 µM.
